Results: patent publication US4552874A, “Pyrazolooxazines, pyrazolothiazines, and pryazoloquinolines and their use as medicaments” (Bayer Aktiengesellschaft, priority 1982, dated 1985)

biological target: T1, Lipoxygenase in platelet (Homo sapiens, UniProt P18054); test: Inhibition of lipoxygenase in washed human platelets (HETE synthesis from radioactively labelled arachidonic acid); type: cell-based; conditions: in vitro
T1 construct: the metabolism of radioactively labelled arachidonic acid on washed human platelets is used; endogenous in cells; host or cells: washed human platelets
T1 sequence (P18054 1-663): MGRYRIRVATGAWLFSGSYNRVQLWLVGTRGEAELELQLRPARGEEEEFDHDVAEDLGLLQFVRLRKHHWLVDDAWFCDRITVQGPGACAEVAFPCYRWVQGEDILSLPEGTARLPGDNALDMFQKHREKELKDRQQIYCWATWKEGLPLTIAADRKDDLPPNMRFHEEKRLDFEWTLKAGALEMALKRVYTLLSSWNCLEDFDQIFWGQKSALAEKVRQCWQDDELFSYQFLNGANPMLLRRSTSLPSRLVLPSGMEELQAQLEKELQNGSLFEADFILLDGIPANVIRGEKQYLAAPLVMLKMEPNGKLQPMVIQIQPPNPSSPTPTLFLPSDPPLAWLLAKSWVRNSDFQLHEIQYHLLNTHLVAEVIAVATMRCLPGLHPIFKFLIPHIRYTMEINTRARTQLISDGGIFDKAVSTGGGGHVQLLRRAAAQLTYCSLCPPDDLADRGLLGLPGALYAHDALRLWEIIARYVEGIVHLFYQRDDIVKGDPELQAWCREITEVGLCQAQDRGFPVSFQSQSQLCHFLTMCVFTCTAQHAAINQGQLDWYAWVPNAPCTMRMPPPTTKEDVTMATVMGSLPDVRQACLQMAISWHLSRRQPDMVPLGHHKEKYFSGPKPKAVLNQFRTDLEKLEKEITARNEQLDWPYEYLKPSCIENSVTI
Description: In this test method, the metabolism of radioactively labelled arachidonic acid on washed human platelets is used. In this in vitro test, the radioactively labelled metabolites are extracted from the reaction mixture and separated by thin-layer chromatography. The autoradiogram is evaluated on a thin-layer scanner. Under these test conditions, the labelled metabolites are separated from the unreacted arachidonic acid and can then be evaluated quantitatively. The distribution of radioactivity over the products of cyclooxygenase formed during the metabolism, thromboxane B2 (TXB2) and 12-hydroxy-5,8,10-heptadecatrienoic acid (HHT) and the product of lipoxygenase, 12-hydroxy-5,8,11,14-eicosatetraenoic acid (HETE), under the influence of the inhibitors provides a measure of the inhibition of the enzymes.
The inhibition of lipoxygenase by the compounds according to the invention can be measured by the inhibition of synthesis of HETE. It emerges that the synthesis of TXB2 and of HHT remains unaffected, whilst the conversion of arachidonic acid decreases. […] (Compare Table 1).

| SMILES | Minimum concentration (g/ml) for inhibition of Lipoxygenase in platelet |
| --- | --- |
| CN(C)S(=O)(=O)c1ccc2c(c1)Oc1cn[nH]c1N2 | 10^-5 g/ml |
| Cn1ncc2c1Nc1ccccc1O2 | 10^-6 g/ml |
| Cn1ncc2c1Nc1cc(Cl)ccc1O2 | 10^-6 g/ml |
| Clc1ccc2c(c1)Nc1[nH]ncc1S2 | 10^-6 g/ml |
| Cc1ccc2c(c1)Nc1[nH]ncc1S2 | 10^-6 g/ml |
| Clc1ccc2c(c1)Nc1[nH]ncc1O2 [drawing 13] | 10^-6 g/ml |
| Cc1ccc2c(c1)Nc1[nH]ncc1O2 [drawing 14] | 10^-6 g/ml |
| c1ccc2cc3c(cc2c1)Nc1[nH]ncc1O3 [drawing 29] | 10^-6 g/ml |

tested on: Lipoxygenase in PMN Leucocytes; test: Inhibition of lipoxygenase in PMN leucocytes (liberation of 5-HETE and leukotriene B4); type: cell-based, humans and rabbits; conditions: in vitro
Description: The polymorphonuclear leucocytes of humans and of rabbits metabolise arachidonic acid to 5-hydroxy-5,8,11,14-eicosatetraenoic acid (5-HETE) and leukotriene B4 (5S, 12R-dihydroxy-6 cis, 8,10-trans-14 cis-eicosatetraenoic acid). The inhibition of the liberation of 5-HETE and leukotriene B4 from the leucocytes provides a measure of the lipoxygenase-inhibitory effect of the compounds according to the invention. (Compare Table 1).
The test with human leucocytes is carried out by the method of Borgeat and Samuelsson (j. Biol. Chem. 254; 2643, 1979 and Proc. Natl. Acad. Sci. USA, 76, 2148 (1979), and with rabbit leucocytes by the method of Walker and Parish (Inter. Archs. Allergy appl. Immun. 66, 83, 1981).

| SMILES | Minimum concentration (g/ml) for inhibition of Lipoxygenase in PMN Leucocytes |
| --- | --- |
| Cn1ncc2c1Nc1ccccc1O2 | 10^-6 g/ml |
| Cn1ncc2c1Nc1cc(Cl)ccc1O2 | 10^-6 g/ml |
| Cc1ccc2c(c1)Nc1[nH]ncc1S2 | 10^-6 g/ml |
| c1c2c(cc3c1OCO3)Oc1cn[nH]c1N2 | < 10^-5 g/ml |
| CN1c2nn(C)cc2Cc2cccc(Br)c21 [Compound 30] | 10^-5 g/ml |
| O=C(O)Cn1cc2c(n1)N(C1CCCCC1)c1ccccc1O2 [Compound 40, 9-Cyclohexylpyrazolo[4,3-b][1,4]benzoxazine-2-acetic acid] | > 10^-5 g/ml |
| CCN1c2cc(OC)ccc2Oc2cnn(C)c21 [Compound 50] | 10^-5 g/ml |
| Cn1cc2c(n1)N(Cc1ccccc1)c1ccccc1O2 [Compound 60] | > 10^-5 g/ml |
| CCCCOc1ccc2c(c1)N(C)c1[nH]ncc1O2 [Compound 70] | < 10^-5 g/ml |
| CN1c2cc(SC(F)(F)F)ccc2Oc2cn[nH]c21 [Compound 71] | < 10^-5 g/ml |
| Clc1ccc2c(c1)Nc1[nH]ncc1O2 [drawing 13] | 10^-6 g/ml |
| Cc1ccc2c(c1)Nc1[nH]ncc1O2 [drawing 14] | 10^-6 g/ml |
| c1ccc2cc3c(cc2c1)Nc1[nH]ncc1O3 [drawing 29] | 10^-6 g/ml |
| CC(=O)n1cc2c(n1)N(C)c1ccccc1C2 [drawing 38] | > 10^-5 g/ml |
| COc1ccc2c(c1)N(C)c1[nH]ncc1O2 [drawing 47] | < 10^-6 g/ml |
| CCN1c2cc(OC)ccc2Oc2cnn(C)c21 [drawing 49] | 10^-6 g/ml |
| CCOC(=O)Cn1cc2c(n1)N(C1CCCCC1)c1ccccc1O2 [drawing 50] | > 10^-5 g/ml |
| CN1c2ccccc2Oc2cn(C(=O)c3ccccn3)nc21 [drawing 53] | > 10^-5 g/ml |
| CC(=O)n1cc2c(n1)N(C)c1ccccc1O2 [drawing 55] | > 10^-5 g/ml |
| c1ccc2c(c1)Oc1cn[nH]c1N2C1CCCCC1 [drawing 56] | 10^ -6 g/ml |
| c1ccc2c(c1)Oc1cn[nH]c1N2C1CCCCC1 [drawing 59] | > 10^-6 g/ml |

tested on: prostacyclin synthesis in strips of rabbit aorta; test: Stimulation of prostacyclin synthesis in strips of rabbit aorta; type: cell-based; conditions: Oryctolagus cuniculus, 1 h, 2.10^6 g/ml of substance, read-out: Stimulation in % compared to control (prostacyclin synthesis)

| SMILES | activation at 2 µg/mL [%] |
| --- | --- |
| c1ccc2c(c1)Nc1[nH]ncc1S2 [Compound 12] | 80 |
| c1cnc2c(c1)Oc1cn[nH]c1N2 [Compound 17] | 200 |

same assay, conditions: Oryctolagus cuniculus, 1 h, at 10^-5 g/ml substance concentration, read-out: Stimulation in % compared to control (prostacyclin synthesis)

| SMILES | activation at 10 µg/mL [%] |
| --- | --- |
| CN1c2ccccc2Oc2cnn(C)c21 [Compound 24] | 100 |

tested on: carrageenan oedema; test: Inhibition of carrageenan oedema formation; type: in vivo; conditions: rat, oral administration of 25 mg/kg
Description: (§1) The compounds according to the invention are also active in vivo. […] The compounds according to the invention also reduce the formation of oedema in the model of carrageenan inflammation, (compare Table 3) and inhibit the formation of metastases from B-16 melanoma (method of Honn, et. al. Science 212, 1270, 1981).

| SMILES | inhibition in vivo at 25 mg/kg [%] |
| --- | --- |
| Clc1ccc2c(c1)Nc1[nH]ncc1O2 [Compound 2] | 57.8 |
| Cc1ccc2c(c1)Nc1[nH]ncc1O2 [Compound 3] | 41.4 |
| c1ccc(-n2ncc3c2Nc2ccccc2O3)cc1 [Compound 9] | 75.1 |
| CN1c2ccccc2Oc2cn[nH]c21 [Compound 10] | 73.4 |
| O=S1(=O)c2ccccc2Nc2[nH]ncc21 [Compound 16] | 45.4 |
| CC(=O)n1cc2c(n1)N(C)c1ccccc1C2 [Compound 27] | 62.4 |
| COc1ccc2c(c1)N(C)c1[nH]ncc1O2 [Compound 36] | 60 |
| CCOC(=O)Cn1cc2c(n1)N(C1CCCCC1)c1ccccc1O2 [Compound 39, Ethyl (9-cyclohexylpyrazolo[4,3-b][1,4]benzoxazin-2-yl) acetate] | 47.5 |
| O=C(O)Cn1cc2c(n1)N(C1CCCCC1)c1ccccc1O2 [Compound 40, 9-Cyclohexylpyrazolo[4,3-b][1,4]benzoxazine-2-acetic acid] | 44 |
| CN1c2ccccc2Oc2cn(C(=O)c3ccccn3)nc21 [Compound 42] | 67.3 |
| CC(=O)n1cc2c(n1)N(C)c1ccccc1O2 [Compound 44, 2-Acetyl-9-methylpyrazolo[4,3-b][1,4]benzoxazine] | 70 |

tested on: melanoma B 16; test: Inhibition of the initiation of pulmonary metastases in melanoma B 16; type: in vivo; conditions: melanoma B 16, mouse, three i.p. administrations of 1 mg/kg
Description: as §1

| SMILES | % Inhibition of the initiation of pulmonary metastases [%] |
| --- | --- |
| c1ccc2cc3c(cc2c1)Nc1[nH]ncc1O3 [Compound 18] | 36 |
| Cn1ncc2c1Nc1cc3ccccc3cc1O2 [Compound 19] | 30 |

tested on: cyclooxygenase; test: not given; conditions: cited from earlier work

| SMILES | action of known lipoxygenase inhibitors, in words |
| --- | --- |
| NC1=NN(c2cccc(C(F)(F)F)c2)CC1 [3-amino-1-(m-trifluoromethylphenyl)-2-pyrazoline] | either also act as inhibitors of cyclooxygenase or only act at very high concentrations |
| CCCCCC#CCC#CCC#CCC#CCCCC(=O)O [5,8,11,14-eicosatetraynoic acid] | either also act as inhibitors of cyclooxygenase or only act at very high concentrations |
| CC(Cc1ccc(O)c(O)c1)C(C)Cc1ccc(O)c(O)c1 (centres unmarked) [nordihydroguaiaretic acid] | either also act as inhibitors of cyclooxygenase or only act at very high concentrations |
| O=C1CCN(c2ccccc2)N1 [phenidone] | either also act as inhibitors of cyclooxygenase or only act at very high concentrations |

tested on: not given; test: not given; conditions: systemic administration (for example orally); cited from earlier work

| SMILES | toxic side effects, in words |
| --- | --- |
| NC1=NN(c2cccc(C(F)(F)F)c2)CC1 [3-amino-1-(m-trifluoromethylphenyl)-2-pyrazoline] | toxic side effects on systemic administration (for example orally) |
